Target: Substance-P receptor (Homo sapiens, UniProt P25103)
Test: Receptor Binding Assay: The buffer solution for the receptor binding test was dispensed to the wells of a 96-well assay plate (Greiner) at 22.5 μL/well. DMSO solutions of a test compound, which were prepared at an 80-time higher concentration using 100% dimethyl sulfoxide (DMSO), were added to the wells at 2.5 μL/well (final concentrations of 1 nM to 100 nM), and the solutions were mixed. As a radiolabeled ligand, 125I-substance P (Substance P, [125I]Tyr8-, PerkinElmer) was used. 125I-substance P was diluted with the buffer solution for the receptor binding test to a concentration resulting in 125 pmol/25 μL/well and added to the 96-well assay plate, and the solutions were mixed. The membrane fraction prepared from the human NK1 receptor-expressing cells was diluted with the buffer solution for the receptor binding test to a concentration resulting in 8 to 10 μg/well, suspended until the suspension became in such a homogenous state that the suspension could flow through a 27 G injection needle smoothly and then added to the 96-well assay plate at 150 μL/well. Then, the plate was incubated at room temperature for 60 minutes while shaking the plate. […]

Chain of Substance-P receptor (P25103 whole entry): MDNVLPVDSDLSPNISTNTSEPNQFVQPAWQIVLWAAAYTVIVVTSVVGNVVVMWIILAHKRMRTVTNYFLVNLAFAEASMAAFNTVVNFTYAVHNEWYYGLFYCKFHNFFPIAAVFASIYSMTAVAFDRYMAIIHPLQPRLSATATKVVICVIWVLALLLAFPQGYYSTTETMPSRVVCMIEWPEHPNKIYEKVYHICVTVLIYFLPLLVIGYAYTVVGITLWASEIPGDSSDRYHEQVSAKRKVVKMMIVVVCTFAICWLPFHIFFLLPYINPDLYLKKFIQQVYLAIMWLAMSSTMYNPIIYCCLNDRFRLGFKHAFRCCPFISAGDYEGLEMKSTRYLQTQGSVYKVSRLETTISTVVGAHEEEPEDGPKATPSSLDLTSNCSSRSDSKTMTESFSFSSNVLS

Work on `Cc1cc(F)ccc1-c1cc(C2CCC(CC(=O)O)CC2)nc(Cl)c1N(C)C(=O)C(C)(C)c1cc(C(F)(F)F)cc(C(F)(F)F)c1` (stereo unspecified) yielded an IC50 of 5.51 nM.
